From patent US11970474B2, “Substituted benzodiazoles and use thereof in therapy” (THOMAS HELLEDAYS STIFTELSE FÖR MEDICINSK FORSKNING, priority 2018, dated 2024)

Key:
[1] = tested on: MLE-12 cells; assay: Pro-inflammatory gene regulation induced by TNFα; type: cell-based, mouse; details: 20 ng/ml TNFα, 5 μM compound
Method: MLE-12 cells are maintained in suitable medium and treated with vehicle or 5 μM experimental compound for 48 h before stimulation with 20 ng/ml TNFα for 30 minutes. RNA is extracted and reverse-transcribed, followed by quantitative PCR evaluation of a panel of pro-inflammatory regulators (SABiosciences) essentially as described in Ba, Xueqing, et al., The Journal of Immunology, 192(5), 2384-94 (2014).

[2] = tested on: Hec59 + Chr2; assay: Cell viability assay (resazurin); type: cell-based; details: 120 h, Cancer, endometrioid adenocarcinoma, five day incubation
Method: (§1) A dilution series of compound or vehicle are transferred to 96-well plates. Cells are seeded into the plate (500-10,000 cells/well) in suitable media and incubated for five days in 5% CO2 at 37° C. Thereafter, resazurin (diluted in suitable medium or PBS) are added to a final concentration 10 μg/ml resazurin at 37° C. for 2-4 hours before measuring the fluorescence (Ex544/Em590), essentially as described (Riss, Terry L. et al., “Cell Viability Assays.” In Assay Guidance Manual, ed. G. Sitta Sittampalam, et al. Bethesda (Md.): Eli Lilly & Company and the National Center for Advancing Translational Sciences (2004) http://www.ncbi.nlm.nih.gov/books/NBK144065/).
(§2) The compounds to be tested are nano-dispensed in duplicate in 11 concentrations, directly in 384-well cell plates, with a final DMSO concentration<1%. Cells are seeded in cell plates, pre-dispensed with compounds (200-2500 cells/well in 50 μl). After three or five days culture in 5% CO2, 37° C., resazurin diluted in PBS is added, 10 μl/well, to a final concentration of 10 μg/ml and cells are incubated 2-4 hours before measuring fluorescence (Ex544/Em590), as described (ibid.). Results obtained for selected example compounds described herein on cancer- and non-transformed cell lines are provided in the table below (Table 3) and summarized in FIG. 1. Where indicated, combination indexes was measured with CompuSyn software (www.compusyn.com) by the method of Chou-Talalay (Chou, Ting-Chao., Cancer Research, 70(2), 440-46 (2010)).

[3] = tested on: NB-4; assay: Cell viability assay (resazurin); type: cell-based; details: Homo sapiens, 120 h, Cancer, acute promyelocytic leukemia, five day incubation
Method: as §1, §2

[4] = tested on: K562; assay: Cell viability assay (resazurin); type: cell-based; details: Homo sapiens, 120 h, Cancer, Chronic Myelogenous Leukemia, five day incubation
Method: as §1, §2

[5] = tested on: SW1271; assay: Cell viability assay (resazurin); type: cell-based; details: 120 h, Cancer, Small Cell Lung Carcinoma, five day incubation
Method: as §1, §2

[6] = tested on: Hec59; assay: Cell viability assay (resazurin); type: cell-based; details: 120 h, Cancer, endometrioid adenocarcinoma, five day incubation
Method: as §1, §2

[7] = tested on: THP1; assay: Cell viability assay (resazurin); type: cell-based; details: Homo sapiens, THP-1, 120 h, Cancer, Acute Monocytic Leukemia, five day incubation
Method: as §1, §2

[8] = tested on: CCL2; assay: Mouse CCL2 assay in MLE12 cells; type: cell-based; details: Mus musculus, MLE12, 30 h, MLE12 cells; TNF-α 20 ng/ml; supernatant after 30 hours; HTRF; read-out: CCL2 (EC50)
How it was run: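 CCL2 in supernatants was quantified by two-antibody HTRF FRET, read at 620 and 665 nm after overnight RT incubation, with IC50 derived from delta ratios. Cells were SV40-transformed mouse MLE12, treated with duplicate 6-point compound series for 1 h before 30 h TNF-α (20 ng/ml final) stimulation.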

Row | EC50 [8] [µM] | Structure (SMILES) | pro-inflammatory gene regulation induced by the cytokine TNFα [1] | EC50 [2] [µM] | EC50 [3] [µM] | EC50 [4] [µM] | EC50 [5] [µM] | EC50 [6] [µM] | EC50 [7] [µM]
1 | 17 | O=C(Nc1ccc(Cl)c(Cl)c1)N1CCC(n2c(=O)[nH]c3c(-c4ccc(CO)nc4)cccc32)CC1 [Example 28, N-(3,4-dichlorophenyl)-4-{4-[6-(hydroxymethyl)pyridin-3-yl]-2-oxo-2,3-dihydro-1H-1,3-benzodiazol-1-yl}piperidine-1-carboxamide] |  | 17 | 11 | 21 | 25 | 11 | 19
2 | 15.4 | Cc1cc(NC(=O)N2CCC(n3c(=O)[nH]c4c(Br)cccc43)CC2)ccc1I [Example 50, 4-(4-Bromo-2-oxo-2,3-dihydro-1H-1,3-benzodiazol-1-yl)-N-(4-iodo-3-methylphenyl)piperidine-1-carboxamide] |  |  |  |  |  |  | 

Row | Structure (SMILES) | EC50 [8] [µM] | pro-inflammatory gene regulation induced by the cytokine TNFα [1] | EC50 [2] [µM] | EC50 [3] [µM] | EC50 [4] [µM] | EC50 [5] [µM] | EC50 [6] [µM] | EC50 [7] [µM]
3 | O=C(Nc1ccc(I)cc1)N1CCC(n2c(=O)[nH]c3c(Br)cccc32)CC1 [Example 13, 4-(4-Bromo-2-oxo-2,3-dihydro-1H-1,3-benzodiazol-1-yl)-N-(4-iodophenyl)piperidine-1-carboxamide] | 18.8 | reduces pro-inflammatory gene regulation | 16 | 5 | 20 | 22 | 17 | 23
